Data from PubChem BioAssay AID493240 (Broad Institute, 2011).

The compounds below were run on SK-MEL-5 viability, ATP luminescence (CellTiter-Glo), 24 h (assay: cytotoxicity in parental SK-MEL-5 melanoma cells – cell-based, CellTiter-Glo, cherry-picked, set 3, orthogonal assay for MITF inhibitor project, dose response (AID 493240)).
With COc1ccc(S(=O)(=O)Nc2ccc(O)c3ccccc23)cc1 the AC50 was 14.7 µM. In the case of Cc1cc(/C=C2\Sc3ccccc3N2C)cc(C)[n+]1CC1CCCO1 (stereo not drawn), the AC50 is reported as 10 µM. Compound O=[N+]([O-])c1ccc(S(=O)(=O)CC(CN2CCCCC2)N2CCCCC2)cc1 (stereo not drawn) has an AC50 of 29.8 µM. In the case of COc1ccccc1CNCC(O)Cn1c2ccccc2c2ccccc21 (stereo not drawn), the AC50 is reported as 19 µM. O=C(COc1ccc(Cl)cc1Cl)Nc1ccccn1 gave an AC50 of 19.6 µM. O=c1c2ccccc2nc(/C=C/c2ccc([N+](=O)[O-])o2)n1-c1ccc(O)cc1 showed an AC50 of 14.9 µM. Work on C#CCCc1ccccc1/C=[N+](/C)[O-] yielded an AC50 of 20.5 µM. Cc1ccc(NC(=O)c2ccc([N+](=O)[O-])s2)cc1S(=O)(=O)N1CCOCC1 was tested, and the AC50 was 16.2 µM. CC[n+]1c(/C=C/N(C)c2ccccc2)sc2ccc(Cl)cc21 gave an AC50 of 19.8 µM. Work on CCN(CC)CCNC(=O)c1ccc(NC(=O)c2cn(-c3ccccc3)nc2-c2cccs2)cc1 yielded an AC50 of 19.9 µM. CCOC(=O)c1c(NC(C)=O)sc2c(OCC(O)CNC(C)(C)C)c(Br)ccc12 (stereo not drawn) showed an AC50 of 19.1 µM. COc1cc(/C=N/NC(N)=O)c(Br)cc1OCC(=O)Nc1ccccc1C was tested, and the AC50 was 27.2 µM. CN1CCC(N(C)C(=O)/C=C/c2cn(-c3ccccc3)nc2-c2cccs2)CC1 gave an AC50 of 20.1 µM. CCCCC[n+]1ccn(C2=C([O-])c3ccccc3C(=O)/C2=N\S(=O)(=O)c2ccccc2)c1 gave an AC50 of 15.5 µM. For Nc1c(N(CCC2=CCCCC2)C(=O)COc2ccc([N+](=O)[O-])cc2)c(=O)[nH]c(=O)n1Cc1ccccc1, the AC50 was 33.7 µM. Work on O=C(Nc1ccccc1)NN(C(=O)CCl)c1ccccc1 yielded an AC50 of 28.7 µM. With O=C(N/N=C/c1ccc(F)cc1)c1c(O)c2ccccc2[nH]c1=O the AC50 was 26.9 µM. Compound COc1ccc(C(=O)/C=C/C(=O)N(CC(=O)NC2CCCCC2)CC2CCCO2)c(O)c1 (stereo not drawn) has an AC50 of 11.9 µM. With CCSCCc1nnc(NC(=O)Nc2cccc(C(F)(F)F)c2)s1 the AC50 was 16.6 µM. With CS(=O)(=O)c1ccc(C(=O)OCC(=O)NCc2cccs2)cc1[N+](=O)[O-] the AC50 was 29.7 µM. CN(C)S(=O)(=O)c1ccc(-c2csc(N/N=C/c3ccc(O)cc3)n2)cc1 gave an AC50 of 17.5 µM. In the case of CN(C)CCCNC(=O)/C(=C\c1ccc(-c2ccc(Br)cc2)o1)NC(=O)c1ccccc1, the AC50 is reported as 16.7 µM. CCOC(=O)c1ccc(NC2=CC(=O)C(=O)c3ccccc32)cc1 gave an AC50 of 14.3 µM. With COc1ccc(C(=O)/C=C/C(=O)N(CC(=O)NC2CCCCC2)Cc2ccccc2OC)c(O)c1 the AC50 was 9.67 µM. With COc1cc2c(cc1OC)C(c1ccccc1)N(C(=O)CCl)CC2 (stereo not drawn) the AC50 was 22.6 µM. COCCCn1[nH]c2c3c(ccc2c1=O)C(=O)c1ccccc1C3=O showed an AC50 of 16.5 µM. Cc1cc2oc3ccc(NCCC4CCCN4C)cc3c(=O)c2cc1C (stereo not drawn) was tested, and the AC50 was 17.6 µM. With Cc1ccc(-c2nc(C(=O)NCCCN(C)C)cc3c2[nH]c2ccccc23)cc1 the AC50 was 18.8 µM. For O=C(NC1=C(Nc2ccc(Cl)cc2)C(=O)c2ccccc2C1=O)c1ccccc1, the AC50 was 11.2 µM. CC1CCC(C(C)C)C(OC(=O)C[n+]2cc(-c3ccc(Cl)cc3)n3c2CCCCC3)C1 (stereo not drawn) showed an AC50 of 17.2 µM. For CS(=O)(=O)c1nc(-c2ccc(F)cc2)cc(C(F)(F)F)n1, the AC50 was 20.3 µM. Compound CCOC(=O)c1ccc2c(c1)n(CC)c(/C=C/N(C)c1ccccc1)[n+]2CC has an AC50 of 13.3 µM. Compound Cc1ccc(-c2nnc(SCC(=O)Nc3ccccc3F)o2)cc1 has an AC50 of 21.7 µM. In the case of Cc1cccc(NC2=C(NC(=O)c3ccccc3)C(=O)c3ccccc3C2=O)c1, the AC50 is reported as 19.7 µM. For Cc1cc(C)cc(NS(=O)(=O)c2ccc3c(c2)c(=O)n(C)c(=O)n3C)c1, the AC50 was 25.5 µM. Cc1ccc(S(=O)(=O)N2CCCCC2)cc1NC(=O)Cn1ncc(Cl)c(Cl)c1=O was tested, and the AC50 was 19.3 µM. In the case of CCN(CC)S(=O)(=O)c1ccc(NC(=O)c2cccnc2Cl)c(NC(=O)c2cccnc2Cl)c1, the AC50 is reported as 12.3 µM. O=C(/C=C/Nc1ccccc1Br)c1ccccn1 gave an AC50 of 21.9 µM. For Cc1oc(-c2ccc(Cl)cc2)nc1CN1CCC(C(=O)NCCCN2CCCC(C)C2)CC1 (stereo not drawn), the AC50 was 17.1 µM. Compound O=C(NCC1CCCCC1)C1(CC2CC(c3cccc(Br)c3)=NO2)CCNCC1 (stereo not drawn) has an AC50 of 18 µM. In the case of N/C(=N\OC(=O)c1ccccc1Cl)c1ccccn1, the AC50 is reported as 28.8 µM. In the case of C(#Cc1ccccc1)C[N+]1(CC#Cc2cccc3ccccc23)CCCC1, the AC50 is reported as 17.9 µM. Compound O=C(N/N=C\c1ccc([N+](=O)[O-])s1)c1cncc(Br)c1 has an AC50 of 21 µM. O=C1/C(=C/c2ccccc2[N+](=O)[O-])COc2ccccc21 showed an AC50 of 34.1 µM. With COCCN(CC(=O)NC1CCCCC1)C(=O)/C=C/C(=O)c1ccc(OC)cc1O the AC50 was 10.5 µM. In the case of CCOC(=O)Cn1c(=NC(=O)c2ccc([N+](=O)[O-])s2)sc2ccccc21, the AC50 is reported as 6.03 µM. Compound COc1ccccc1NS(=O)(=O)c1cc(NC(=O)c2ccc(Cl)nc2)ccc1Cl has an AC50 of 24.3 µM. Compound COc1cc(/C=N/N=C(N)N)ccc1OCc1ccc(Cl)cc1 has an AC50 of 18.8 µM. COc1ccccc1C(=O)Nc1nc(-c2ccc(S(=O)(=O)N3CCOCC3)cc2)cs1 showed an AC50 of 20.8 µM. Work on CCCCN(C)CC(O)Cn1cc(/C=C/C(=O)c2cccs2)c2ccccc21 (stereo not drawn) yielded an AC50 of 18.8 µM. With CC(=O)c1c(C)oc2c1C(=O)c1ccccc1C2=O the AC50 was 7.62 µM. With N=c1n(Cc2ccc(Cl)cc2)c2ccccc2n1CC(O)COc1ccccc1 (stereo not drawn) the AC50 was 19.1 µM. O=C(N/N=C/c1ccc([N+](=O)[O-])o1)c1ccc(O)cc1 was tested, and the AC50 was 16.7 µM. Work on O=[N+]([O-])c1ccc(/C=N/n2cnc3ccccc32)s1 yielded an AC50 of 17.9 µM. For CCOC(=O)c1c(C)oc2c1C(=O)c1ccccc1C2=O, the AC50 was 3.37 µM. Cc1c(C(=O)Nc2ccc(S(=O)(=O)N(C)C3CCN(C)CC3)cc2)oc2c(Cl)cccc12 was tested, and the AC50 was 29.4 µM. With COc1cc(SC)ccc1C(=O)Nc1nc(C)cs1 the AC50 was 28.4 µM. COc1cc(/C=C/C(=O)c2ccc3c(c2)OCCO3)cc(Br)c1OCC(=O)N(C)C gave an AC50 of 18 µM. Cc1ccccc1NC(=O)Cc1nc(COC(=O)c2ccc(S(C)(=O)=O)c([N+](=O)[O-])c2)cs1 gave an AC50 of 27.3 µM. Work on O=C(Nc1ccc(Nc2ccncc2)cc1)c1ccc([N+](=O)[O-])cc1 yielded an AC50 of 34.3 µM. COc1cc(NC(=O)COc2cc(O)c3c(c2)OC(C)(C)CC3=O)cc(OC)c1OC was tested, and the AC50 was 23.4 µM. With CCc1ccc(NC2=CC(=O)C(=O)c3ccccc32)cc1 the AC50 was 5.85 µM. CC(C)(C)c1ccc(Cn2c(=N)n(CC(O)c3ccco3)c3ccccc32)cc1 (stereo not drawn) was tested, and the AC50 was 19.9 µM. COc1ccc(CNCCC(c2ccc(F)cc2)c2ccc(OC)cc2)cc1 (stereo not drawn) showed an AC50 of 16.6 µM. CC[n+]1c(-c2ccccc2)c2cc(N)ccc2c2ccc(N)cc21 gave an AC50 of 15 µM. N=c1n(CC(=O)c2ccc([N+](=O)[O-])cc2)c2ccccc2n1Cc1ccc(Cl)cc1 was tested, and the AC50 was 16.9 µM. O=C(N/N=C/c1cccc2cccnc12)c1ccccc1O gave an AC50 of 32.9 µM. Compound O=C(CCl)Nc1ccc(Sc2ccc(NC(=O)CCl)cc2)cc1 has an AC50 of 23.6 µM. In the case of O=C(CCl)Nc1cccc(-c2cnc3ccccc3n2)c1, the AC50 is reported as 17.3 µM. With COc1ccc(C(=O)/C(C#N)=N/Nc2ccc([N+](=O)[O-])cc2)cc1 the AC50 was 18.5 µM. For CC1CCN(CC(CS(=O)(=O)c2ccc([N+](=O)[O-])cc2)N2CCC(C)CC2)CC1 (stereo not drawn), the AC50 was 27.3 µM. In the case of O=C(O)/C=C/C(=O)c1ccc2c(c1)CCc1ccccc1-2, the AC50 is reported as 30.5 µM. Work on O=C1/C(=N\S(=O)(=O)c2cccs2)C([n+]2ccccc2)=C([O-])c2ccccc21 yielded an AC50 of 5.27 µM. Compound CCN1CCN(C2=C(NS(=O)(=O)c3ccc(Br)cc3)C(=O)c3ccccc3C2=O)CC1 has an AC50 of 22.9 µM. Cc1ccc(C(C)C)c(OCc2nn(CC(=O)c3ccc(OC(F)F)cc3)c3[n+]2CCCCC3)c1 was tested, and the AC50 was 20.2 µM. Work on CN(C)CCNC(=O)/C(=C/c1ccc(-c2ccc(Cl)cc2)o1)NC(=O)c1ccccc1 yielded an AC50 of 20.4 µM. Compound COc1ccc(Oc2cc(NC(=O)c3nn(C)cc3[N+](=O)[O-])cc([N+](=O)[O-])c2)cc1 has an AC50 of 30.4 µM. In the case of CCNC1=C(Cl)C(=O)c2ccccc2C1=O, the AC50 is reported as 9.44 µM. For CN(C)c1ccc(C2=NOC(CN3C(=O)c4ccccc4S3(=O)=O)C2)cc1 (stereo not drawn), the AC50 was < 0.015 µM. Compound O=C(CCl)N(c1ccccc1)C1CCS(=O)(=O)C1 (stereo not drawn) has an AC50 of 29.9 µM. CCN1CCN(CCCNC(=O)c2ccc3c(c2)NC(=O)/C(=C\c2cccc(C)c2)S3)CC1 showed an AC50 of 20.3 µM. With Cc1ccc(C(=O)N/N=C/c2ccc([N+](=O)[O-])s2)cc1 the AC50 was 26.7 µM. With N=c1n(CCN2CCCC2)c2ccccc2n1CC(O)c1ccc(Cl)c(Cl)c1 (stereo not drawn) the AC50 was 16.3 µM. Work on CCN1CCCC1CNC(=O)c1ccc2c(c1)NC(=O)/C(=C\c1ccc(C)cc1)S2 (stereo not drawn) yielded an AC50 of 18.7 µM. In the case of O=C(CCl)N(c1ccccc1)C1CCCCC1, the AC50 is reported as 32.3 µM. O=C1Nc2ccc(Br)cc2/C1=C/C(=O)c1ccc2c(c1)OCO2 showed an AC50 of 32.6 µM. Compound CCN(CC)CCCNC1=C(Cl)C(=O)c2ccccc2C1=O has an AC50 of 5.82 µM. Cc1[nH]nc2nc(SCC(=O)NCCC3=CCCCC3)n(-c3ccc(Br)cc3)c(=N)c12 gave an AC50 of 21.5 µM. Cc1c(OCC(=O)NC2CC(C)(C)NC(C)(C)C2)ccc2c1oc(=O)c1ccccc12 showed an AC50 of 23.2 µM. CCN1CCN(c2ccc(Nc3ccnc4ccccc34)cc2)CC1 gave an AC50 of 23.8 µM. Work on S=C=Nc1cccc(C2(N3CCCCC3)CCCCC2)c1 yielded an AC50 of 20.4 µM. In the case of CC1CCC(C(C)C)C(OC(=O)Cn2c(-c3ccc(F)cc3)[n+](C)c3ccccc32)C1 (stereo not drawn), the AC50 is reported as 8.02 µM. Work on Cc1ccc(C(=O)C[n+]2cc(-c3ccc(C)cc3)n3c2CCCCC3)cc1 yielded an AC50 of 14.4 µM. For COc1cc(NC(=O)COc2ccccc2[N+](=O)[O-])ccc1NC(=O)c1cccs1, the AC50 was 26.4 µM. COC(=O)C1=C(C)N(Cc2ccccc2)C(=NCCc2cccnc2)N[C@H]1c1ccc(Br)cc1 showed an AC50 of 19.2 µM. In the case of Cc1cc(C)cc(NC(=O)c2ccc([N+](=O)[O-])o2)c1, the AC50 is reported as 27.7 µM. In the case of CC1CCCC(NCC(O)COC(c2ccc(F)cc2)c2ccc(F)cc2)C1C (stereo not drawn), the AC50 is reported as 20.9 µM. With C#CC(=O)N(c1ccc(OC)c(OC)c1)C(C(=O)NC1CCCC1)c1cccs1 (stereo not drawn) the AC50 was 22.1 µM. With C#CC(=O)N(c1ccc(OC)cc1OC)C(C(=O)NC1CCCC1)c1cccs1 (stereo not drawn) the AC50 was 19.9 µM. Cc1ccc(-c2c[n+](Cc3ccc(Cl)c(Cl)c3)c3n2CCC3)cc1 gave an AC50 of 15.3 µM. Work on Cc1ccc(S(=O)(=O)/N=C2\C(=O)c3ccccc3C([O-])=C2n2cc[n+](CCC(C)C)c2)cc1 yielded an AC50 of 15.6 µM. With CC(=O)N(\C=C/C=C/C=C1\Sc2ccccc2C1=O)c1ccccc1 the AC50 was 21.2 µM. Work on CC(C)Oc1ccc(C(CCNCc2ccc(O)cc2)c2ccccc2)cc1 (stereo not drawn) yielded an AC50 of 16.5 µM. CC1CCC(C(C)C)C(OC(=O)Cn2c(-c3ccc(Br)cc3)[n+](C)c3ccccc32)C1 (stereo not drawn) showed an AC50 of 15.2 µM. O=C(Cn1ncc(Cl)c(Cl)c1=O)N1CCc2ccccc21 was tested, and the AC50 was 22.6 µM. CCCCn1c(=N)n(CC(=O)c2ccc(Br)s2)c2ccccc21 gave an AC50 of 18.5 µM. Work on COC(=O)C1=C(C)N(Cc2ccccc2)C(=NCC(C)C)N[C@H]1c1cccc(C(F)(F)F)c1 yielded an AC50 of 17.4 µM. In the case of O=C(N/N=C/c1ccc(O)c2ncccc12)c1cccc(Br)c1, the AC50 is reported as 25.7 µM.
